# According to patent US20260306642A1, “STAT DEGRADERS AND USES THEREOF” (Recludix Pharma, Inc., priority 2023, published 2026):
# Read-outs that look alike come from different tables or passages of the source.
# Target: pSTAT3 (Homo sapiens, UniProt P40763)
# Assay: MSD-pSTAT-PBMC Assay (pSTAT3, IL-6 stimulated)
# Format: cell-based
# Source text: Cryopreserved Peripheral Blood Mononuclear Cells (PBMC) are from AllCells. Recombinant Human IL-4 and IL-6 are from Peprotech. Mouse monoclonal anti-STAT3 antibody, rabbit monoclonal anti-pY705-STAT3 antibody, rabbit monoclonal Anti-pY641-STAT6 antibody, and lysis buffer are from Cell Signaling Technology (CST). Mouse monoclonal anti-STAT6 antibody is from BioLegend. Assay plates, blocker, and anti-rabbit secondary antibody are from Meso Scale Discovery (MSD).
# Cryopreserved PBMCs were thawed out and allowed to recover overnight in IMDM+10% heat-inactivated FBS prior to plating 50,000 (STAT3) or 25,000 (STAT6) cells per well in 96-well U-bottom tissue culture plates. Cells were treated with compound for 3 hrs, then stimulated with 10 ng/mL IL-6 (STAT3) or 1 ng/mL IL-4 (STAT6) for 10 min. Cells were then spun down and washed with ice-cold PBS prior to lysing the cell pellet with 1× lysis buffer (CST) with 1× HALT protease and phosphatase inhibitor cocktail (Thermo). Lysates were transferred to and incubated overnight at 4° C. with shaking in QuickPlex 96-well high bind assay plates (MSD) pre-coated overnight with 30 μL per well of […] mouse monoclonal anti-STAT3 antibody (STAT3) or 2 μg/mL mouse monoclonal anti-STAT6 antibody (STAT6) in 1× PBS, and pre-blocked for 1 hour with 3% Blocker-A (MSD). Captured protein in the assay plates were then washed and probed with 25 μL per well of […] rabbit monoclonal anti-pY705-STAT3 antibody (STAT3) or […] rabbit monoclonal Anti-pY641-STAT6 antibody (STAT6) in 1% Blocker-A for 1 hour at room temperature with shaking, then washed and probed with 25 ul per well of 1 ug/ml Sulfo-TAG Labeled Goat Anti-Rabbit Antibody (MSD) in 1% Blocker-A for 1 hour at room temperature with shaking. Assay plates were then washed and 150 μL of 1× Read Buffer-T (MSD) was added to each well prior to reading on an SQ120 MSD Plate Reader. Assay signal from each sample was subtracted by the signal from unstimulated control wells and normalized to DMSO control wells. IC50 values were calculated using Graph Pad Prism Dose-Response Nonlinear Regression with variable slope. For both pSTAT3 and pSTAT6 A=≤100 nM; B=>100-1000 nM; C=>1000-3000 nM; and D=>3 μM.
# [1] = read-out: pSTAT3 IC50, compound 3 hrs, then 10 ng/mL IL-6 10 min, pY705-STAT3
# [2] = compound 3 hrs, then 10 ng/mL IL-6 10 min, pY705-STAT3, read-out: pSTAT3 IC50
# Sequence of pSTAT3 (P40763 whole entry): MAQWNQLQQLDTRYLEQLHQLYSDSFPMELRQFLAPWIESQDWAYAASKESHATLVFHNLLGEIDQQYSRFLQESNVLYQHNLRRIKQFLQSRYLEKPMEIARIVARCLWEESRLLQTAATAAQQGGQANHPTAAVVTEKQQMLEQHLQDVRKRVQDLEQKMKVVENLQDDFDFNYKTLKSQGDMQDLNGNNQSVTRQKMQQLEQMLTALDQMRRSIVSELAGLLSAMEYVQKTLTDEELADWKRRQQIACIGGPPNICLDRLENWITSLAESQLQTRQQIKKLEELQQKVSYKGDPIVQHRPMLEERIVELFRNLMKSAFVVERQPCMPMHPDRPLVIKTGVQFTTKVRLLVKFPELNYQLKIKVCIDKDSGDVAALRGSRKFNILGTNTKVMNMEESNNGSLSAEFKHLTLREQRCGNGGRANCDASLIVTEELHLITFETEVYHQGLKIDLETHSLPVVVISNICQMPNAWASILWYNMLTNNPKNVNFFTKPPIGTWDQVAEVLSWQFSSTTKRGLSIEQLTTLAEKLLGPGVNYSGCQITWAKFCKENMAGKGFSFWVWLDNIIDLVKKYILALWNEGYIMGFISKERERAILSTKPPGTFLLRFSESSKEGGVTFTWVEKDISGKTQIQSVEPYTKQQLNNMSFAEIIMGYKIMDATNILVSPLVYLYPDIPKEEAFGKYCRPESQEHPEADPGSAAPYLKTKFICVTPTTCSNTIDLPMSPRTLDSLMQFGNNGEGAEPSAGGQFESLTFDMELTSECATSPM
IC50 [2] [nM],SMILES,IC50 [1] [nM]
–,"CCCOC(=O)[C@H](C)NP(=O)(Oc1ccccc1)[C@@H](F)c1ccc2sc(C(=O)N[C@H]3CCC[C@H]4CC[C@@H](C(=O)N5CC(c6cnccc6N6CCC(CCC#Cc7ccc8c(c7)n(C)c(=O)n8C7CCC(=O)NC7=O)CC6)C5)N4C3=O)cc2c1 (stereo partly drawn) [Compound 38, propyl (((1R)-(2-(((3S,6S,9aS)-3-(3-(4-(4-(4-(1-(2,6-dioxopiperidin-3-yl)-3-methyl-2-oxo-2,3-dihydro-1H-benzo[d]imidazol-5-yl)but-3-yn-1-yl)piperidin-1-yl)pyridin-3-yl)azetidine-1-carbonyl)-5-oxooctahydro-1H-pyrrolo[1,2-a]azepin-6-yl)carbamoyl)benzo[b]thiophen-5-yl)fluoromethyl)(phenoxy)phosphoryl)-L-alaninate]",< 100
< 100,"Cn1c(=O)n(C2CCC(=O)NC2=O)c2ccc(C#CCCC3CCN(c4ccncc4C4CN(C(=O)[C@@H]5CC[C@@H]6CCC[C@H](NC(=O)c7cc8cc(C(F)(F)P(=O)(OCCSC(=O)C(C)(C)C)OCCSC(=O)C(C)(C)C)ccc8s7)C(=O)N65)C4)CC3)cc21 (stereo partly drawn) [Compound 35, S,S(((((2-(((3S,6S,9aS)-3-(3-(4-(4-(4-(1-(2,6-dioxopiperidin-3-yl)-3-methyl-2-oxo-2,3-dihydro-1H-benzo[d]imidazol-5-yl)but-3-yn-1-yl)piperidin-1-yl)pyridin-3-yl)azetidine-1-carbonyl)-5-oxooctahydro-1H-pyrrolo[1,2-a]azepin-6-yl)carbamoyl)benzo[b]thiophen-5-yl)difluoromethyl)phosphoryl)bis(oxy))bis(ethane-2,1-diyl)) bis(2,2-dimethylpropanethioate)]",–
–,"CCCC(=O)SCCOP(=O)(OCCSC(=O)CCC)C(F)(F)c1ccc2sc(C(=O)N[C@H]3CCC[C@H]4CC[C@@H](C(=O)N5CC(c6cnccc6N6CCC(C(=O)N[C@H](C(=O)N7C[C@H](O)C[C@H]7C(=O)NCc7ccc(-c8scnc8C)cc7)C(C)(C)C)CC6)C5)N4C3=O)cc2c1 [Compound 7, S,S((((difluoro(2-(((3S,6S,9aS)-3-(3-(4-(4-(((S)-1-((2S,4R)-4-hydroxy-2-((4-(4-methylthiazol-5-yl)benzyl)carbamoyl)pyrrolidin-1-yl)-3,3-dimethyl-1-oxobutan-2-yl)carbamoyl)piperidin-1-yl)pyridin-3-yl)azetidine-1-carbonyl)-5-oxooctahydro-1H-pyrrolo[1,2-a]azepin-6-yl)carbamoyl)benzo[b]thiophen-5-yl)methyl)phosphoryl)bis(oxy))bis(ethane-2,1-diyl)) dibutanethioate]",100 to 1000
< 100,"CCCC(=O)SCCOP(=O)(OCCSC(=O)CCC)C(F)(F)c1ccc2sc(C(=O)N[C@H]3CCC[C@H]4CC[C@@H](C(=O)N5CC(c6cnccc6OCCOc6ccc(C7CCC(=O)NC7=O)cc6)C5)N4C3=O)cc2c1 (stereo partly drawn) [Compound 10, S,S(((((2-(((3S,6S,9aS)-3-(3-(4-(2-(4-(2,6-dioxopiperidin-3-yl)phenoxy)ethoxy)pyridin-3-yl)azetidine-1-carbonyl)-5-oxooctahydro-1H-pyrrolo[1,2-a]azepin-6-yl)carbamoyl)benzo[b]thiophen-5-yl)difluoromethyl)phosphoryl)bis(oxy))bis(ethane-2,1-diyl)) dibutanethioate]",–
< 100,"CCCC(=O)SCCOP(=O)(OCCSC(=O)CCC)C(F)(F)c1ccc2sc(C(=O)N[C@H]3CCC[C@H]4CC[C@@H](C(=O)N5CC(c6cnccc6N(C)CCOc6ccc(C7CCC(=O)NC7=O)cc6)C5)N4C3=O)cc2c1 (stereo partly drawn) [Compound 20, S,S(((((2-(((3S,6S,9aS)-3-(3-(4-((2-(4-(2,6-dioxopiperidin-3-yl)phenoxy)ethyl)(methyl)amino)pyridin-3-yl)azetidine-1-carbonyl)-5-oxooctahydro-1H-pyrrolo[1,2-a]azepin-6-yl)carbamoyl)benzo[b]thiophen-5-yl)difluoromethyl)phosphoryl)bis(oxy))bis(ethane-2,1-diyl)) dibutanethioate]",–
–,"CCCOC(=O)[C@H](C)NP(=O)(Oc1ccccc1)[C@H](F)c1ccc2sc(C(=O)N[C@H]3CCC[C@H]4CC[C@@H](C(=O)N5CC(c6cnccc6N6CCC(CCC#Cc7ccc8c(c7)n(C)c(=O)n8C7CCC(=O)NC7=O)CC6)C5)N4C3=O)cc2c1 (stereo partly drawn) [Compound 39, propyl (((1S)-(2-(((3S,6S,9aS)-3-(3-(4-(4-(4-(1-(2,6-dioxopiperidin-3-yl)-3-methyl-2-oxo-2,3-dihydro-1H-benzo[d]imidazol-5-yl)but-3-yn-1-yl)piperidin-1-yl)pyridin-3-yl)azetidine-1-carbonyl)-5-oxooctahydro-1H-pyrrolo[1,2-a]azepin-6-yl)carbamoyl)benzo[b]thiophen-5-yl)fluoromethyl)(phenoxy)phosphoryl)-L-alaninate]",< 100
–,"CCCC(=O)SCCOP(=O)(OCCSC(=O)CCC)C(F)(F)c1ccc2sc(C(=O)N[C@H]3CCC[C@H]4CC[C@@H](C(=O)N5CC(c6cnccc6N6CCN(C(=O)COc7ccc(C8CCC(=O)NC8=O)cc7)CC6)C5)N4C3=O)cc2c1 (stereo partly drawn) [Compound 29, S,S(((((2-(((3S,6S,9aS)-3-(3-(4-(4-(2-(4-(2,6-dioxopiperidin-3-yl)phenoxy)acetyl)piperazin-1-yl)pyridin-3-yl)azetidine-1-carbonyl)-5-oxooctahydro-1H-pyrrolo[1,2-a]azepin-6-yl)carbamoyl)benzo[b]thiophen-5-yl)difluoromethyl)phosphoryl)bis(oxy))bis(ethane-2,1-diyl)) dibutanethioate]",< 100
< 100,"CCCC(=O)SCCOP(=O)(OCCSC(=O)CCC)C(F)(F)c1ccc2sc(C(=O)N[C@H]3CCC[C@H]4CC[C@@H](C(=O)N5CC(c6cnccc6OCCOCCOc6ccc(C7CCC(=O)NC7=O)cc6)C5)N4C3=O)cc2c1 (stereo partly drawn) [Compound 12, S,S((((2-(((3S,6S,9aS)-3-(3-(4-(2-(2-(4-(2,6-dioxopiperidin-3-yl)phenoxy)ethoxy)ethoxy)pyridin-3-yl)azetidine-1-carbonyl)-5-oxooctahydro-1H-pyrrolo[1,2-a]azepin-6-yl)carbamoyl)benzo[b]thiophen-5-yl)difluoromethyl)phosphoryl)bis(oxy))bis(ethane-2,1-diyl)) dibutanethioate]",–

SMILES,IC50 [2] [nM],IC50 [1] [nM]
"CCCC(=O)SCCOP(=O)(OCCSC(=O)CCC)C(F)(F)c1ccc2sc(C(=O)N[C@H]3CCC[C@H]4CC[C@@H](C(=O)N5CC(c6cnccc6OCCCCN[C@H](C(=O)N6C[C@H](O)C[C@H]6C(=O)NCc6ccc(-c7scnc7C)cc6)C(C)(C)C)C5)N4C3=O)cc2c1 [Compound 1, S,S((((difluoro(2-(((3S,6S,9aS)-3-(3-(4-(4-(((S)-1-((2S,4R)-4-hydroxy-2-((4-(4-methylthiazol-5-yl)benzyl)carbamoyl)pyrrolidin-1-yl)-3,3-dimethyl-1-oxobutan-2-yl)amino)butoxy)pyridin-3-yl)azetidine-1-carbonyl)-5-oxooctahydro-1H-pyrrolo[1,2-a]azepin-6-yl)carbamoyl)benzo[b]thiophen-5-yl)methyl)phosphoryl)bis(oxy))bis(ethane-2,1-diyl)) dibutanethioate]",100 to 1000,–
